Among the data in PubChem BioAssay AID226 (DTP/NCI, 2004) are T/C values, retold here.

The assay concerns B6C3F1 mice, intracerebral ependymoblastoma, median survival T/C. Briefly: NCI In Vivo Anticancer Drug Screen. Data for tumor model Ependymoblastoma (intracerebral) in B6C3F1 mice. The settings on record: endpoint: median survival time, higher = longer survival. As to the method: The antitumor activity of compounds was measured in mice bearing transplantable tumors. Survival or tumor size were measured and the results are expressed as the measurement made in the treated group (T) divided by the measurement made in the vehicle treated control group (C). The tumor model used in this assay is Ependymoblastoma (intracerebral) in B6C3F1 mice

Setting [1] is: dose: 8.0 mg/kg/injection, schedule: Q01DX005 (ip), vehicle: saline.
Setting [2] is: dose: 16.0 mg/kg/injection, schedule: Q01DX005 (ip), vehicle: saline.
The mark [3] stands for this setting: dose: 32.0 mg/kg/injection, schedule: Q01DX005 (ip), vehicle: saline.
Setting [4] is: dose: 128.0 mg/kg/injection, schedule: Q01DX005 (ip), vehicle: saline.

Structures are written as SMILES. “And” between values parts separate entries of the source, which are not always exact repeats. Equal values may be shown once. Toxic doses and inconclusive results are not listed.

Consider `O=c1[nH]c(=O)n([C@H]2CCCO2)cc1F`, for which the T/C reads like this: (dose: 8.0 mg/kg/injection, schedule: Q01DX005 (ip), vehicle: saline with Tween-80) 98 % of control and 100 % of control; under setting [1], 92 % of control; (dose: 16.0 mg/kg/injection, schedule: Q01DX005 (ip), vehicle: saline with Tween-80) 93 % of control and 104 % of control; under setting [2], 91 % of control; (dose: 32.0 mg/kg/injection, schedule: Q01DX005 (ip), vehicle: saline with Tween-80) 106 % of control and 109 % of control; under setting [3], 92 % of control and 96 % of control. Moreover, the T/C was 104 % of control and 105 % of control (dose: 64.0 mg/kg/injection, schedule: Q01DX005 (ip), vehicle: saline with Tween-80); 93 % of control and 103 % of control (dose: 64.0 mg/kg/injection, schedule: Q01DX005 (ip), vehicle: saline); 100 % of control and 119 % of control (dose: 128.0 mg/kg/injection, schedule: Q01DX005 (ip), vehicle: saline with Tween-80); 93 % of control and 110 % of control under setting [4]; 124 % of control (dose: 256.0 mg/kg/injection, schedule: Q01DX005 (ip), vehicle: saline with Tween-80).

Consider `CC[C@H]1CN2CCc3cc(OC)c(OC)cc3[C@@H]2C[C@@H]1C[C@H]1NCCc2cc(OC)c(OC)cc21`, for which the T/C by setting is: (dose: 2.0 mg/kg/injection, schedule: Q01DX005 (ip), vehicle: Klucel (hydroxypropylcellulose) (HPC)) 100 % of control and 104 % of control; (dose: 4.0 mg/kg/injection, schedule: Q01DX005 (ip), vehicle: Klucel (hydroxypropylcellulose) (HPC)) 99 % of control and 105 % of control; (dose: 8.0 mg/kg/injection, schedule: Q01DX005 (ip), vehicle: Klucel (hydroxypropylcellulose) (HPC)) 105 % of control and 117 % of control.

Turning to `CC(=O)NNC(=O)c1ccccn1`, the T/C was 101 % of control and 110 % of control (dose: 100.0 mg/kg/injection, schedule: Q01DX005 (ip), vehicle: Klucel (hydroxypropylcellulose) (HPC)); 92 % of control and 90 % of control (dose: 200.0 mg/kg/injection, schedule: Q01DX005 (ip), vehicle: Klucel (hydroxypropylcellulose) (HPC)); 95 % of control and 103 % of control (dose: 400.0 mg/kg/injection, schedule: Q01DX005 (ip), vehicle: Klucel (hydroxypropylcellulose) (HPC)).

For the compound `CC(CN1CC(=O)NC(=O)C1)N1CC(=O)NC(=O)C1` (stereo not given), the T/C reads like this: (dose: 8.0 mg/kg/injection, schedule: Q01DX001 (ip), vehicle: Klucel (hydroxypropylcellulose) (HPC)) 101 % of control and 102 % of control; (dose: 16.0 mg/kg/injection, schedule: Q01DX001 (ip), vehicle: Klucel (hydroxypropylcellulose) (HPC)) 104 % of control and 86 % of control; (dose: 32.0 mg/kg/injection, schedule: Q01DX001 (ip), vehicle: Klucel (hydroxypropylcellulose) (HPC)) 101 % of control and 102 % of control; (dose: 64.0 mg/kg/injection, schedule: Q01DX001 (ip), vehicle: Klucel (hydroxypropylcellulose) (HPC)) 103 % of control and 109 % of control; (dose: 128.0 mg/kg/injection, schedule: Q01DX001 (ip), vehicle: Klucel (hydroxypropylcellulose) (HPC)) 99 % of control and 103 % of control.

Take `CN1CC[C@]23c4c5ccc(O)c4O[C@H]2C(=O)CC[C@H]3[C@H]1C5`: the T/C by setting is: (dose: 6.25 mg/kg/injection, schedule: Q01DX005 (iv), vehicle: saline) 113 % of control; (dose: 12.5 mg/kg/injection, schedule: Q01DX005 (iv), vehicle: saline) 114 % of control; (dose: 25.0 mg/kg/injection, schedule: Q01DX005 (iv), vehicle: saline) 122 % of control.

As for `O=P1(NCCCl)OCCC(OO)N1CCCl` (stereo not given), the T/C is, setting by setting: (dose: 40.0 mg/kg/injection, schedule: Q01DX001 (ip), vehicle: Klucel (hydroxypropylcellulose) (HPC)) 106 % of control and 119 % of control; (dose: 80.0 mg/kg/injection, schedule: Q01DX001 (ip), vehicle: Klucel (hydroxypropylcellulose) (HPC)) 115 % of control; (dose: 240.0 mg/kg/injection, schedule: Q01DX001 (ip), vehicle: Klucel (hydroxypropylcellulose) (HPC)) 150 % of control.

With `O=C(NP(=O)(N1CC1)N1CC1)c1cc(I)ccc1I`, the T/C under setting [1] is 104 % of control and 109 % of control; the T/C under setting [2] was 106 % of control and 124 % of control; the T/C (dose: 16.0 mg/kg/injection, schedule: Q#A X004 (ip), vehicle: suspension in saline) is 101 % of control; the T/C (dose: 16.0 mg/kg/injection, schedule: Q#A X006 (ip), vehicle: suspension in saline) was 113 % of control; the T/C (dose: 32.0 mg/kg/injection, schedule: Q01DX001 (ip), vehicle: suspension in saline) was 101 % of control; the T/C under setting [3] is 112 % of control. Besides, the T/C runs as follows: (dose: 32.0 mg/kg/injection, schedule: Q#A X004 (ip), vehicle: suspension in saline) 117 % of control; (dose: 32.0 mg/kg/injection, schedule: Q#A X006 (ip), vehicle: suspension in saline) 117 % of control; (dose: 64.0 mg/kg/injection, schedule: Q01DX001 (ip), vehicle: suspension in saline) 117 % of control; (dose: 64.0 mg/kg/injection, schedule: Q01DX001 (oral), vehicle: suspension in saline) 103 % of control; (dose: 64.0 mg/kg/injection, schedule: Q#A X004 (ip), vehicle: suspension in saline) 117 % of control; (dose: 64.0 mg/kg/injection, schedule: Q#A X006 (ip), vehicle: suspension in saline) 122 % of control. Besides, the T/C was 103 % of control (dose: 128.0 mg/kg/injection, schedule: Q01DX001 (ip), vehicle: suspension in saline); 106 % of control (dose: 128.0 mg/kg/injection, schedule: Q01DX001 (oral), vehicle: suspension in saline); 116 % of control under setting [4]; 111 % of control (dose: 128.0 mg/kg/injection, schedule: Q#A X004 (ip), vehicle: suspension in saline); 113 % of control (dose: 256.0 mg/kg/injection, schedule: Q01DX001 (oral), vehicle: suspension in saline); 112 % of control (dose: 512.0 mg/kg/injection, schedule: Q01DX001 (ip), vehicle: suspension in saline).

Regarding `CC(=O)O[C@H]1C(=O)[C@@]2(C)[C@H]([C@H](OC(=O)c3ccccc3)[C@]3(O)C[C@H](OC(=O)[C@H](O)[C@@H](NC(=O)c4ccccc4)c4ccccc4)C(C)=C1C3(C)C)[C@]1(OC(C)=O)CO[C@@H]1C[C@@H]2O`, the T/C reads like this: (dose: 2.5 mg/kg/injection, schedule: Q01DX005 (ip), vehicle: Klucel (hydroxypropylcellulose) (HPC)) 107 % of control; (dose: 5.0 mg/kg/injection, schedule: Q01DX005 (ip), vehicle: Klucel (hydroxypropylcellulose) (HPC)) 101 % of control; (dose: 10.0 mg/kg/injection, schedule: Q01DX005 (ip), vehicle: Klucel (hydroxypropylcellulose) (HPC)) 91 % of control and 106 % of control; (dose: 20.0 mg/kg/injection, schedule: Q01DX005 (ip), vehicle: Klucel (hydroxypropylcellulose) (HPC)) 91 % of control.

With `[Cl][Pt+2][Cl].[NH-]C1CCC1.[NH-]C1CCC1`, the T/C reads like this: (dose: 10.0 mg/kg/injection, schedule: Q01DX005 (ip), vehicle: dextrose) 103 % of control; (dose: 20.0 mg/kg/injection, schedule: Q01DX005 (ip), vehicle: dextrose) 103 % of control; (dose: 80.0 mg/kg/injection, schedule: Q01DX005 (ip), vehicle: dextrose) 90 % of control.

`Nc1ncnc2c1ncn2C1OC(CO)C(O)C1O` (stereo not given): the T/C runs as follows: (dose: 64.0 mg/kg/injection, schedule: Q01DX005 (ip), vehicle: Klucel (hydroxypropylcellulose) (HPC)) 101 % of control; (dose: 128.0 mg/kg/injection, schedule: Q01DX005 (ip), vehicle: Klucel (hydroxypropylcellulose) (HPC)) 92 % of control; (dose: 256.0 mg/kg/injection, schedule: Q01DX005 (ip), vehicle: Klucel (hydroxypropylcellulose) (HPC)) 96 % of control; (dose: 512.0 mg/kg/injection, schedule: Q01DX005 (ip), vehicle: Klucel (hydroxypropylcellulose) (HPC)) 94 % of control; (dose: 1024.0 mg/kg/injection, schedule: Q01DX005 (ip), vehicle: Klucel (hydroxypropylcellulose) (HPC)) 98 % of control.

Turning to `Nc1n[nH]c(N)n1`, the T/C is 93 % of control and 88 % of control under setting [4]; 95 % of control and 100 % of control (dose: 256.0 mg/kg/injection, schedule: Q01DX005 (ip), vehicle: saline); 92 % of control and 103 % of control (dose: 512.0 mg/kg/injection, schedule: Q01DX005 (ip), vehicle: saline); 118 % of control and 87 % of control (dose: 1024.0 mg/kg/injection, schedule: Q01DX005 (ip), vehicle: saline).

In the case of `COc1cc2c(cc1O)N=C[C@@H]1CCC(O)N1C2=O` (mixture of isomers), the T/C (dose: 2.0 mg/kg/injection, schedule: Q01DX005 (ip), vehicle: distilled water + Tween-80) was 95 % of control; the T/C (dose: 4.0 mg/kg/injection, schedule: Q01DX005 (ip), vehicle: distilled water + Tween-80) was 92 % of control; the T/C (dose: 8.0 mg/kg/injection, schedule: Q01DX005 (ip), vehicle: distilled water + Tween-80) is 87 % of control.
